Source: US20040229785A1, “Screening methods to identify treatments for autoimmune disease” (priority 2002, published 2004)
“And” between values parts separate entries of the source, which are not always exact repeats. Equal entries are not always repeated.

How the values were obtained:
[1] = system: NOD splenocytes; test: Annexin V/PI flow cytometry of cultured splenocytes with and without TNF-α; format: cell-based, mouse; conditions: for TNF sensitivity of T cell subpopulation: FIG. 13
Procedure: (§1) Flow cytometry can be performed using a Facscalibur flow cytometer (BD Biosciences, San Jose, Calif.). Samples were incubated for 18-24 hours in the absence or presence of TNF-α (20-50 ng/mL), after which apoptotis can be determined by direct detection using FITC-conjugated annexin V and Propidium Iodide (PI) from R&D Systems (TACS Annexin V-FITC Apoptosis Detection Kit; Minneapolis, Minn.). Early apoptotic cells were defined as positive for annexin V only, whereas late apoptotic cells were defined as being positive for both PI and annexin V.
(§2) In order to obtain high viability for those assays using splenocytes, gentle treatment throughout the isolation procedure is important. Optimized results were obtained as follows: a mouse is sacrificed by cervical dislocation and the spleen removed via an abdominal incision. The spleen is then gently inflated with several mLs of RPMI/10% FBS using a 22 gauge needle. Any fluid leaking out of the spleen is collected as it contains splenocytes. A small opening is created on one end of the spleen and the splenic tissue expelled through this opening with a “scraping” motion using blunt tipped forceps. The resulting clumps of tissue are homogenized by repeated gentle pipetting. The crude splenocyte preparation is then filtered through a 40 micron mesh filter.
(§3) The spleen contains a variety of different immune cells. These can be distinguished further into T-cells (mostly CD4 and CD8) and non-T-cells (mostly B-cells and macrophages). Magnetic separation methods were used to sort the splenocytes into T-cell and non-T-cell fractions. For the isolation of T-cells, Miltenyi Biotec's Pan T magnetic bead cocktail were used. This cocktail contains antibodies against CD11b, CD45R, DX5, and Ter-119. As a result, all Non-T cells, i.e. B cells, NK cells, dendritic cells, macrophages, granulocytes, and erythroid cells; are depleted from the sample, leaving only T-cells. For the isolation of non-T-cells, a mixture of magnetic beads directed against CD90 and Ter-119 were used. This depletes all T-cells and erythroid cells, leaving only the non-T cells.
(§4) The difference in sensitivity between B6 and NOD splenocytes to TNF-α was then examined. B6 and NOD splenocytes were plated out in U-bottom shaped 96 well plates at a density of 25,000 cells per well in 100 μL of medium, with and without 50 ng/mL TNF-α added. The cells were cultured for 24 hrs, stained with Annexin V and PI, and analyzed by flow cytometry (FIG. 10).
(§5) After culture at 37° C. for 26 hours, the cell death of NOD vs. B6 T cells and NOD vs. B6 non T cells was quantified by AnnexinV and PI (FIG. 11). Late death is shown for cells obtained from a single NOD and a single B6 mouse.
(§6) Samples obtained from a single NOD and a single B6 mouse were also examined for cell death by PI staining alone (FIG. 12) after culturing at 32° C. for 18 hours.
(§7) Therefore, Annexin V binding/PI uptake measurements were used to measure specific cellular lineages in the human PBLs based on fluorescence activated cell scanning (FACS) analysis. PBLs were stained with anti-CD3, anti-Annexin V, and anti-PI antibodies immediately after isolation. After 12 or 24 hours in culture in the presence or absence of TNF-α, cells were analyzed by FACS for Annexin V/PI binding to defined lineages. Over the course of these studies several important differences emerged in the behavior of human PBLs compared to NOD splenocytes (Table 1). First, human PBL isolates contained a large amount of cell fragments and debris, both at baseline and after culture. This finding was not evident in the NOD splenocyte preparations. Comparing the responses of non-diabetic C57BL/6 murine splenocytes to non-diabetic humans PBLs, the viability of C57BL/6 splenocytes remained constant during a 24 hour period of culture in vitro, whereas a progressive increase in spontaneous cell death of human PBLs was regularly observed over this interval. […]

[2] = system: B6 (C57BL/6) splenocytes; test: as above; format: cell-based, mouse
Procedure: as §1, §2, §3, §4, §5, §6, §7

[3] = system: PBLs from Type I diabetics; test: Trypan Blue uptake by human PBLs incubated with TNF-α; format: cell-based; conditions: TNF-α 20 ng/mL, 24 hours, FIG. 14A
Procedure: (§8) In an initial set of assays for characterizing the response of PBLs from human diabetics and control subjects to incubation with TNF-α or other candidate compounds in vitro, uptake of the dye Trypan Blue, a relatively nonspecific measure of cell death, was used. […] However, there appeared to be an inverse correlation between the age-at-onset and the extent of the TNF-α induced-increase in Trypan Blue uptake by the PBLs (FIG. 14C).

[4] = system: PBLs from non-diabetic subjects; test: as above; format: cell-based; conditions: TNF-α 20 ng/mL, 24 hours, FIG. 14B
Procedure: as §8

[5] = system: PBLs from non-diabetic control subjects; test: FACS Annexin V binding/PI uptake in human PBLs cultured with or without TNF-α; format: cell-based
Procedure: as §7
The results generated using CD3, CD19, and CD11b positive PBLs isolated from 33 Type I diabetics and from control subjects (see Table 1) support the following conclusions. […] After 12 hours, these cells were stained with Annexin V and PI and analyzed by FACS.

[6] = system: PBLs from Type I diabetics; test: as above; format: cell-based; design: increase in Annexin V binding to CD3+ PBLs in response to TNF-α: dose or concentration left out as unconfirmed
Procedure: Therefore, Annexin V binding/PI uptake measurements were used to measure specific cellular lineages in the human PBLs based on fluorescence activated cell scanning (FACS) analysis. PBLs were stained with anti-CD3, anti-Annexin V, and anti-PI antibodies immediately after isolation. After 12 or 24 hours in culture in the presence or absence of TNF-α, cells were analyzed by FACS for Annexin V/PI binding to defined lineages. Over the course of these studies several important differences emerged in the behavior of human PBLs compared to NOD splenocytes (Table 1). First, human PBL isolates contained a large amount of cell fragments and debris, both at baseline and after culture. This finding was not evident in the NOD splenocyte preparations. Comparing the responses of non-diabetic C57BL/6 murine splenocytes to non-diabetic humans PBLs, the viability of C57BL/6 splenocytes remained constant during a 24 hour period of culture in vitro, whereas a progressive increase in spontaneous cell death of human PBLs was regularly observed over this interval. This differential response of cell viability to culture in vitro may possibly reflect an intrinsic fragility of human PBLs and/or the greater rigors of cell isolation required for purification of human PBLs as compared with murine splenocytes. […] Another difference between PBLs from human Type I diabetics and NOD splenocytes is that the evolution of TNF-α-induced apoptosis in NOD splenocytes occurs with a predictable time course that is much more rapid than that seen in PBLs from Type I diabetics. […] By 24 hours, there was little further increase in the fraction of cells binding Annexin V. However, nuclear binding of PI to NOD splenocytes had increased substantially reflecting a further progression of the apoptotic program. By contrast, cell death in response to TNF-α in human CD3 positive-PBLs, when evident, evolved much more slowly. For example, increased Annexin V binding was rarely seen after 12 hours and at 24 hours, increased Annexin V uptake, when present, was generally not accompanied by increased PI uptake.
The results generated using CD3, CD19, and CD11b positive PBLs isolated from 33 Type I diabetics and from control subjects (see Table 1) support the following conclusions. […] In these studies, PBLs were processed in parallel from a Type I diabetic and an age/sex matched control non-diabetic subject. Immediately after isolation, the PBLs were incubated with Annexin V and propidium iodide and subjected to FACS analysis (left column of flow charts; “before incubation”). […] The cells were then incubated in the absence (center panels) or presence (right panels) of TNF-α (20 ng/mL). After 12 hours, these cells were stained with Annexin V and PI and analyzed by FACS.

[7] = system: NOD mouse splenocytes (T cells, non-T cells)
Procedure: (§12) Following is an optimized protocol for the automated analysis of cell sensitivity to compounds that induce cell death via apoptosis or necrosis.
(§13) Place on AutoMACS cell sorter for CD-subset separation (magnetic bead separation method or direct RBC lysis)
(§14) Pipette 100 μL cell suspension (25,000 cells) into each 96-well plate well, ×3 for triplicates
(§15) Add 5 μL of reagent (e.g., TNF-α, another induced or cell death, or mixtures containing up to 10 different chemical reagent combinations for the induction of cell death), to each well to be treated, ×3 for triplicates.
(§16) For flow cytometry (analysis), remove 90 μL of re-suspended sample material from each sample well
(§17) Add 90 μl of cell stain solution to each sample flow test tube above to stain cells for identification
(§18) The sensitivity of T cell populations from NOD mice were re-examined using the automated assay described above.
(§19) Non-T cells from NOD and B6 mice were also examined for sensitivity to TNF-α-induced cell death.

[8] = system: B6 mouse splenocytes (T cells, non-T cells)
Procedure: as §12, §13, §14, §15, §16, §17, §18, §19

[9] = system: CD3+ T cells from a non-diabetic control subject; format: cell-based, human
From the text: (§9) II. Remove red blood cells and collect lymphocyte subsets:
(§10) 11. Acquire timed and/or absolute count/volume data
(§11) The automated method described herein has also been used for the assay of cell viability in a human patient. Blood samples were obtained from a patient with Type I diabetes and from a non-diabetic control subject. During the assay procedure, a CD3^+ T cell subset was isolated from each (Step 11.12 from the protocol). The cells were then contacted with TNF-α and cell viability was measured and compared to that found in control samples which were not contacted with TNF-α.

[10] = system: CD3+ T cells from a patient with Type I diabetes; format: cell-based, human
From the text: as §9, §10, §11

TNF-α
TNF sensitivity of T cell subpopulation ([1]; NOD CD4+ T cells): not TNF sensitive
TNF sensitivity of T cell subpopulation ([1]; NOD CD8+ T cells): greatest TNF sensitivity
cell death of T cells by PI staining alone on exposure to TNF-α ([1]; NOD T cells, 32° C., 18 hours, single mouse, FIG. 12): death of a subpopulation of T cells
late cell death of T cells by AnnexinV and PI on exposure to TNF-α ([1]; NOD T cells, 37° C., 26 hours, single mouse, FIG. 11): further accelerated
After culture with THF-α (Mean % cell death ± SE) ([1]; NOD mouse, overnight early T-cell death, n=5 pairs): 32.9 ± 3.97%
Annexin V binding ([1]; NOD splenocytes, 12-hour incubation with TNF-α): clear increase in Annexin V binding
sensitivity of splenocytes to TNF-α (viability, Annexin V/PI) ([1]; NOD vs B6 control splenocytes, 50 ng/mL TNF-α, 24 hrs, 25,000 cells per well, FIG. 10): much more sensitive
cell death of T cells by PI staining alone on exposure to TNF-α ([2]; B6 T cells, 32° C., 18 hours, single mouse, FIG. 12): do not exhibit TNF induced death
late cell death of T cells by AnnexinV and PI on exposure to TNF-α ([2]; B6 T cells, 37° C., 26 hours, single mouse, FIG. 11): increased viability
After culture with THF-α (Mean % cell death ± SE) ([2]; C57BL/6 mouse, overnight early T-cell death, n=7 pairs): 10.2 ± 2.5%
extent of Trypan Blue uptake [3]: further increasing Trypan Blue uptake
extent of Trypan Blue uptake [4]: did not significantly alter
Annexin V staining after culture in the presence of TNF-α ([5]; PBLs of two parallel non-diabetic control subjects, TNF-α 20 ng/mL, 12 hours, without TNF-α 5.0 and 9.0%): 5.5% and 7.5%
After culture with THF-α (Mean % cell death ± SE) ([5]; human random controls, overnight early T-cell death, n printed 3): 8.02 ± 0.85%
staining by Annexin V+PI+ ([6]; PBLs from a diabetic patient vs matched control, TNF-α 20 ng/mL, 12 hours, FIGS. 15A, 15B): increased significantly and selectively
Annexin V staining after culture in the presence of TNF-α ([6]; PBLs of two Type I diabetic subjects (FIGS. 15A, 15B), TNF-α 20 ng/mL, 12 hours, without TNF-α 6.5% and 6.2%): 11.3% and 13.4%
increase in Annexin V binding to CD3+ PBLs in response to TNF-α ([6]; Type I diabetic vs non-diabetic PBLs, 24 hours, TNF-α): greater to a statistically significant extent
After culture with THF-α (Mean % cell death ± SE) ([6]; human IDDM patients, overnight early T-cell death, n=33 pairs): 8.73 ± 0.96%
change in splenocyte viability on TNF-α treatment (decrease) ([7]; NOD diabetic mice, n=17, T cell populations, FIG. 16): −2.7+/−0.9
viability change of non-T cells, TNF-α treated vs untreated ([7]; NOD mice non-T cells, n=12, FIG. 18B): 4.6%
viability of splenocytes treated with TNF-α [8]: 69.7%
viability change of non-T cells, TNF-α treated vs untreated ([8]; B6 mice non-T cells, n=12, FIG. 18B): 5.0%
change in splenocyte viability on TNF-α treatment (increase) ([8]; control B6 mice, n=17, T cell populations, FIG. 16): 1.0+/−0.5
Viability (%) [9]: 96%
Death (%) ([9]; Control subject, CD3+ cells, TNF-α +, without TNF-α 5): 4%
Total Cell Count ([9]; Control subject, CD3+ cells, TNF-α +, without TNF-α 2000): 2200
Viability (%) [10]: 93%
Death (%) ([10]; Type I diabetic, CD3+ cells, TNF-α +, without TNF-α 5): 7%
Total Cell Count ([10]; Type I diabetic, CD3+ cells, TNF-α +, without TNF-α 1900): 1900
